For the test, the system named is Saccharomyces cerevisiae. The experiment in a line: Antifungal activity against Saccharomyces cerevisiae (strain YPH98). It is filed as functional, organism-based.

Converted amounts (≈) assume the structure as drawn.

As a reminder, the IC50 is the concentration that gives 50% inhibition. Read a high IC50 as lower potency. `CCCCCCCOC[C@]12CC3C(C)CCC3[C@@]3(C=O)CC1C=C(C(C)C)[C@@]23C(=O)O` (stereo partly specified): the midpoint of inhibition, the IC50, lay at 300 ng/mL (≈ 697 nM).
As for `CCCCOC[C@]12CC3C(C)CCC3[C@@]3(C=O)CC1C=C(C(C)C)[C@@]23C(=O)O` (stereo partly specified), the figure is 0.1 ng/mL (≈ 0.257 nM); as for `CC(C)COC[C@]12CC3C(C)CCC3[C@@]3(C#N)CC1C=C(C(C)C)[C@@]23C(=O)O` (stereo partly specified), 30 ng/mL (≈ 77.8 nM); as for `CCCCCCOC[C@]12CC3C(C)CCC3[C@@]3(C=O)CC1C=C(C(C)C)[C@@]23C(=O)O` (stereo partly specified), 15 ng/mL (≈ 36 nM).
As for `CC(C)CCOC[C@]12CC3C(C)CCC3[C@@]3(C#N)CC1C=C(C(C)C)[C@@]23C(=O)O` (stereo partly specified), the figure is 0.01 ng/mL (≈ 0.025 nM); as for `CCCCCOC[C@]12CC3C(C)CCC3[C@@]3(C#N)CC1C=C(C(C)C)[C@@]23C(=O)O` (stereo partly specified), 0.01 ng/mL (≈ 0.025 nM).
As for `CCCCCOC[C@]12CC3C(C)CCC3[C@@]3(C=O)CC1C=C(C(C)C)[C@@]23C(=O)O` (stereo partly specified), the figure is 0.01 ng/mL (≈ 0.0248 nM); as for `CCOC[C@]12CC3C(C)CCC3[C@@]3(C#N)CC1C=C(C(C)C)[C@@]23C(=O)O` (stereo partly specified), 500 ng/mL (≈ 1400 nM).
For `CCCOC[C@]12CC3C(C)CCC3[C@@]3(C=O)CC1C=C(C(C)C)[C@@]23C(=O)O` (stereo partly specified), the midpoint of inhibition, the IC50, lay at 60 ng/mL (≈ 160 nM).
On to `CCCCCCCCCOC[C@]12CC3C(C)CCC3[C@@]3(C#N)CC1C=C(C(C)C)[C@@]23C(=O)O` (stereo partly specified), for which inhibition was half-maximal at 1000 ng/mL (≈ 2190 nM) (IC50).
As for `CCOC[C@]12CC3C(C)CCC3[C@@]3(C=O)CC1C=C(C(C)C)[C@@]23C(=O)O` (stereo partly specified), the figure is 60 ng/mL (≈ 166 nM); as for `CC(C)COC[C@]12CC3C(C)CCC3[C@@]3(C=O)CC1C=C(C(C)C)[C@@]23C(=O)O` (stereo partly specified), 0.1 ng/mL (≈ 0.257 nM).
In turn, `CCCOC[C@]12CC3C(C)CCC3[C@@]3(C#N)CC1C=C(C(C)C)[C@@]23C(=O)O` (stereo partly specified) yielded an IC50 of 90 ng/mL (≈ 242 nM).
As for `CCCCOC[C@]12CC3C(C)CCC3[C@@]3(C#N)CC1C=C(C(C)C)[C@@]23C(=O)O` (stereo partly specified), the figure is 30 ng/mL (≈ 77.8 nM); as for `COC[C@]12CC3C(C)CCC3[C@@]3(C=O)CC1C=C(C(C)C)[C@@]23C(=O)O` (stereo partly specified), 100 ng/mL (≈ 289 nM); as for `CCCCCCCOC[C@]12CC3C(C)CCC3[C@@]3(C#N)CC1C=C(C(C)C)[C@@]23C(=O)O` (stereo partly specified), 100 ng/mL (≈ 234 nM).
Regarding `COC[C@]12CC3C(C)CCC3[C@@]3(C#N)CC1C=C(C(C)C)[C@@]23C(=O)O` (stereo partly specified), the IC50 stood at 1000 ng/mL (≈ 2910 nM).
`CCCCCCCCOC[C@]12CC3C(C)CCC3[C@@]3(C#N)CC1C=C(C(C)C)[C@@]23C(=O)O` (stereo partly specified) showed a half-maximal inhibitory concentration (IC50) of 200 ng/mL (≈ 453 nM).
With `CCCCCCCCCOC[C@]12CC3C(C)CCC3[C@@]3(C=O)CC1C=C(C(C)C)[C@@]23C(=O)O` (stereo partly specified), the IC50 was determined as 50000 ng/mL (≈ 109000 nM).
Take `CCCCCCOC[C@]12CC3C(C)CCC3[C@@]3(C#N)CC1C=C(C(C)C)[C@@]23C(=O)O` (stereo partly specified): the concentration for half-maximal inhibition (IC50) turned out to be 0.3 ng/mL (≈ 0.725 nM).
As for `CC(C)CCOC[C@]12CC3C(C)CCC3[C@@]3(C=O)CC1C=C(C(C)C)[C@@]23C(=O)O` (stereo partly specified), the figure is 0.01 ng/mL (≈ 0.0248 nM).
As for `CC(C)C1=CC2C[C@]3(C#N)C4CCC(C)C4C[C@]2(CO)[C@]13C(=O)O` (stereo partly specified), the figure is 20000 ng/mL (≈ 60700 nM).
As for `CCCCCCCCOC[C@]12CC3C(C)CCC3[C@@]3(C=O)CC1C=C(C(C)C)[C@@]23C(=O)O` (stereo partly specified), the figure is 400 ng/mL (≈ 900 nM); as for `COC1C(C)OC(OCC23CC4C(C)CCC4[C@@]4(C#N)C[C@@H]2C=C(C(C)C)[C@@]34C(=O)O)C(O)C1O` (stereo partly specified), 2000 ng/mL (≈ 4080 nM).
For the molecule `CC(C)C1=CC2C[C@]3(C=O)C4CCC(C)C4C[C@]2(CO)[C@]13C(=O)O` (stereo partly specified) [SORDARICIN], the half-maximal inhibitory concentration (IC50) was over 250000 ng/mL.
As for `CO[C@H]1[C@@H](O)[C@H](O)[C@H](OC[C@@]23C[C@@H]4[C@H](C)CC[C@H]4[C@@]4(C=O)CC2C=C(C(C)C)[C@@]34C(=O)O)O[C@@H]1C` [SORDARIN], the figure is 10000 ng/mL (≈ 20300 nM).

The values are drawn from ChEMBL document CHEMBL1130939, “Alkyl side-chain derivatives of sordaricin as potent antifungal agents against yeast” (Bioorg Med Chem Lett, 1998).
